Biological target: T1, Recombinant human JARID1B/KDM5B (Homo sapiens, UniProt Q9UGL1)
T1 construct: purchased Active Motif 31432; host or cells: Sf9 insect cells
Test: LANCE Ultra TR-FRET JARID1B (KDM5B) demethylase inhibition assay
Assay type: biochemical
Details: 0.1 uM of test-compounds, FLAG-JARID1B, 500 nM biotinylated H3K4me3 peptide substrate, 30 min at room temperature
Procedure, shortened: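 FLAG-tagged JARID1B from Sf9 cells, pre-incubated 5 min with 0.1 uM compound (1% DMSO), then 500 nM biotinylated H3K4me3 peptide, 500 uM 2-OG, 25 uM Fe(II), 2 mM ascorbate in pH 7.5 Hepes buffer. After 30 min at room temperature, H3K4me2/1 product detected by TR-FRET (665/590 nm ratio).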

T1 sequence (Q9UGL1 whole entry): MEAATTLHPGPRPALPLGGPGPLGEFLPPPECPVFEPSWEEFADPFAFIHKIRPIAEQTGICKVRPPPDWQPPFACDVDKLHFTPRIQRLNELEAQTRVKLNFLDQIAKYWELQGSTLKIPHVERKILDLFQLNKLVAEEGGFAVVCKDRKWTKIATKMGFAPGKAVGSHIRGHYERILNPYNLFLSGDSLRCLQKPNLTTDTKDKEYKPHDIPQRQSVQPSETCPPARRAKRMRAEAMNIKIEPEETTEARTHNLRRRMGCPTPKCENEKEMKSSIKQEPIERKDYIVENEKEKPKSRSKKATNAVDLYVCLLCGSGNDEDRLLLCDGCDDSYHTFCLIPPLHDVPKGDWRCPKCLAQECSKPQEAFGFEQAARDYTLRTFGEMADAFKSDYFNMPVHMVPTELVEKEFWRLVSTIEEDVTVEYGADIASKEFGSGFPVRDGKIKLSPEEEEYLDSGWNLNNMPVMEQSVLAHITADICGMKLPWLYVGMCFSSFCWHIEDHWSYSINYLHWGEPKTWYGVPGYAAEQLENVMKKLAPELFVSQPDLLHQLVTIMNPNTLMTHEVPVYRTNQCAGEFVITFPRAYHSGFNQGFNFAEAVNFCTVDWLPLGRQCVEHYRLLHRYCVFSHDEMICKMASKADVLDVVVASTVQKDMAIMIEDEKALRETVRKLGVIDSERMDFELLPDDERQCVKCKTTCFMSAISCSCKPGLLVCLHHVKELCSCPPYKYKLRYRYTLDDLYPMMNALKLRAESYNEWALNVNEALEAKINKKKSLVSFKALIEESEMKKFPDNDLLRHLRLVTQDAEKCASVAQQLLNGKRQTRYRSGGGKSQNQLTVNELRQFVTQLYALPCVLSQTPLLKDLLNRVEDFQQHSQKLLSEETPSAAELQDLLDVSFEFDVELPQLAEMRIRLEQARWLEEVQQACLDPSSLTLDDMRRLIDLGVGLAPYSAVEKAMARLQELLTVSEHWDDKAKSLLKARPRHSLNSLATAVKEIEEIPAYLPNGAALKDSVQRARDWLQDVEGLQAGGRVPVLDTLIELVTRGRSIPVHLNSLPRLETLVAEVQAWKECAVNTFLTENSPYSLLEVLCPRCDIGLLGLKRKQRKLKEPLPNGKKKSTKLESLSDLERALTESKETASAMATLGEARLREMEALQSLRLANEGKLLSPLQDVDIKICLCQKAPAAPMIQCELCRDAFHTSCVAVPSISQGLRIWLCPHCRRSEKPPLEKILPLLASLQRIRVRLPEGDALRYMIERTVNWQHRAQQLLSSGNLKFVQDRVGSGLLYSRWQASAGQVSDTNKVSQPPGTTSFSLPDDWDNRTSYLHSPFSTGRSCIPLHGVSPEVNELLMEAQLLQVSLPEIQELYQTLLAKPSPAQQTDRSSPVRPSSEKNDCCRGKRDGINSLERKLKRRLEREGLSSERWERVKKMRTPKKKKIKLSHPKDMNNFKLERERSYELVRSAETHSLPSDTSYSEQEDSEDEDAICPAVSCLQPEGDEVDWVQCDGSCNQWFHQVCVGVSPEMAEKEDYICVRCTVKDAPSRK

Row | SMILES | inhibition at 0.1 µM
1 | CN(C)CCNc1nc(-c2nccc3c(=O)[nH]c(Cc4ccccc4)nc23)cs1 [Compound 140, 2-benzyl-8-(2-((2-(dimethylamino)ethyl)amino)thiazol-4-yl)pyrido[3,4-d]pyrimidin-4(3H)-one] | 20 to 50%
2 | O=c1[nH]cnc2c(-c3csc(NCC4CCCO4)n3)nccc12 (stereo not drawn) [Compound 41, 8-(2-(((tetrahydrofuran-2-yl)methyl)amino)thiazol-4-yl)pyrido[3,4-d]pyrimidin-4(3H)-one] | ≥ 50%
3 | CN1CCN(CCn2cc(-c3cn(-c4nccc5c(=O)[nH]cnc45)nc3N)cn2)CC1 [Compound 30, 8-(3-amino-1′-(2-(4-methylpiperazin-1-yl)ethyl)-1H,1′H-[4,4′-bipyrazol]-1-yl)pyrido[3,4-d]pyrimidin-4(3H)-one] | 20 to 50%
4 | O=c1[nH]cnc2c(-n3cc(-c4cccc(OCc5ccccc5)c4)cn3)nccc12 [Compound 5, 8-(4-(3-(benzyloxy)phenyl)-1H-pyrazol-1-yl)pyrido[3,4-d]pyrimidin-4(3H)-one] | < 20%
5 | O=c1[nH]c(COc2ccc(F)c(Cl)c2)nc2c(-c3csc(NCC(O)CN4CCNCC4)n3)nccc12 (stereo not drawn) [Compound 113, 2-((3-chloro-4-fluorophenoxy)methyl)-8-(2-((2-hydroxy-3-(piperazin-1-yl)propyl)amino)thiazol-4-yl)pyrido[3,4-d]pyrimidin-4(3H)-one] | ≥ 50%
6 | COCCN1CCC(CNc2nc(-c3nccc4c(=O)[nH]c(COc5ccc(F)c(Cl)c5)nc34)cs2)CC1 [Compound 101, 2-((3-chloro-4-fluorophenoxy)methyl)-8-(2-(((1-(2-methoxyethyl)piperidin-4-yl)methyl)amino)thiazol-4-yl)pyrido[3,4-d]pyrimidin-4(3H)-one] | 20 to 50%
7 | O=c1[nH]cnc2c(-c3csc(NCC4CCNCC4)n3)nccc12 [Compound 56, 8-(2-((piperidin-4-ylmethyl)amino)thiazol-4-yl)pyrido[3,4-d]pyrimidin-4(3H)-one] | ≥ 50%
8 | Nc1nn(-c2nccc3c(=O)[nH]cnc23)cc1-c1cnn(C2CCNCC2)c1 [Compound 22, 8-(3-amino-1′-(piperidin-4-yl)-1H,1′H-[4,4′-bipyrazol]-1-yl)pyrido[3,4-d]pyrimidin-4(3H)-one] | ≥ 50%
9 | Nc1nc(-c2nccc3c(=O)[nH]c(CCc4ccc(F)cc4)nc23)cs1 [Compound 165, 8-(2-aminothiazol-4-yl)-2-(4-fluorophenethyl)pyrido[3,4-d]pyrimidin-4(3H)-one] | 20 to 50%
10 | CC(C)N(CCCCCNc1nc(-c2nccc3c(=O)[nH]c(COc4ccc(F)c(Cl)c4)nc23)cs1)C(C)C [Compound 120, 2-((3-chloro-4-fluorophenoxy)methyl)-8-(2-((5-(diisopropylamino)pentyl)amino)thiazol-4-yl)pyrido[3,4-d]pyrimidin-4(3H)-one] | 20 to 50%
11 | CN1CCN(Cc2cccc(-c3cn(-c4nccc5c(=O)[nH]cnc45)nc3N)c2)CC1 [Compound 37, 8-(3-amino-4-(3-((4-methylpiperazin-1-yl)methyl)phenyl)-1H-pyrazol-1-yl)pyrido[3,4-d]pyrimidin-4(3H)-one] | < 20%
12 | O=c1[nH]cnc2c(-n3cc(-c4cccnc4)cn3)nccc12 [Compound 12, 8-(4-(pyridin-3-yl)-1H-pyrazol-1-yl)pyrido[3,4-d]pyrimidin-4(3H)-one] | < 20%
13 | O=c1[nH]c(COc2ccc(F)c(Cl)c2)nc2c(-c3csc(NCCCCN4CCCC4)n3)nccc12 [Compound 119, 2-((3-chloro-4-fluorophenoxy)methyl)-8-(2-((4-(pyrrolidin-1-yl)butyl)amino)thiazol-4-yl)pyrido[3,4-d]pyrimidin-4(3H)-one] | 20 to 50%
14 | Nc1nc(-c2nccc3c(=O)[nH]c(COc4ccc(Cc5ccccc5)cc4)nc23)cs1 [Compound 71, 8-(2-aminothiazol-4-yl)-2-((4-benzylphenoxy)methyl) pyrido[3,4-d]pyrimidin-4(3H)-one] | ≥ 50%
15 | CN(C)CCNc1nc(-c2nccc3c(=O)[nH]c(COc4ccc(F)c(Cl)c4)nc23)cs1 [Compound 87, 2-((3-chloro-4-fluorophenoxy)methyl)-8-(2-((2-(dimethylamino)ethyl)amino)thiazol-4-yl)pyrido[3,4-d]pyrimidin-4(3H)-one] | ≥ 50%
16 | CN1CCC(Nc2nc(-c3nccc4c(=O)[nH]c(COc5cc(F)cc(F)c5)nc34)cs2)CC1 [Compound 131, 2-((3,5-difluorophenoxy)methyl)-8-(2-((1-methylpiperidin-4-yl)amino)thiazol-4-yl)pyrido[3,4-d]pyrimidin-4(3H)-one] | ≥ 50%
17 | Cc1ccc(CCNc2nc(-c3nccc4c(=O)[nH]c(COc5ccc(F)c(Cl)c5)nc34)cs2)cc1C [Compound 112, 2-((3-chloro-4-fluorophenoxy)methyl)-8-(2-((3,4-dimethylphenethyl)amino)thiazol-4-yl)pyrido[3,4-d]pyrimidin-4(3H)-one] | < 20%
18 | O=c1[nH]c(COc2ccc(Cl)cc2Cl)nc2c(-c3csc(NCCO)n3)nccc12 [Compound 135, 2-((2,4-dichlorophenoxy)methyl)-8-(2-((2-hydroxyethyl)amino)thiazol-4-yl)pyrido[3,4-d]pyrimidin-4(3H)-one] | 20 to 50%
19 | O=c1[nH]c(COc2ccc(Cc3ccccc3)cc2)nc2c(-c3ccccn3)nccc12 [Compound 67, 2-((4-benzylphenoxy)methyl)-8-(pyridin-2-yl)pyrido[3,4-d]pyrimidin-4(3H)-one] | 20 to 50%
20 | COCCNc1nc(-c2nccc3c(=O)[nH]cnc23)cs1 [Compound 42, 8-(2-((2-methoxyethyl)amino)thiazol-4-yl)pyrido[3,4-d]pyrimidin-4(3H)-one] | ≥ 50%
21 | Nc1nn(-c2nccc3c(=O)[nH]cnc23)cc1-c1ccc(C(=O)N2CCOCC2)cc1 [Compound 21, 8-(3-amino-4-(4-(morpholine-4-carbonyl)phenyl)-1H-pyrazol-1-yl)pyrido[3,4-d]pyrimidin-4(3H)-one] | ≥ 50%

Reference: US20170057955A1, “Pyridopyrimidinone Compounds for Modulating the Catalytic Activity of Histone Lysine Demethylases (KDMs)” (Dong-A Socio Holdings Co., Ltd., priority 2015, published 2017)
